Earlier results, collected in PMC11839696 (European Journal of Nuclear Medicine and Molecular Imaging, 2024).

System: prostate cancer tissue
Set-up: AUC of the ROC analysis: unit not given beside the values

## O=C(O)CC[C@H](NC(=O)N[C@@H](CCCCNC(=O)[C@H](Cc1ccc2ccccc2c1)NC(=O)c1ccc(CNC(=O)[C@H](CCC(=O)O)NC(=O)[C@H](CCC(=O)O)NC(=O)c2ccc([18F])nc2)cc1)C(=O)O)C(=O)O [[^18F]-PSMA-1007]
At 75 CPM
  sensitivity: 65.1%
  specificity: 87%
Five patients, 113 cores
  optimal threshold for determining PCa: 75 CPM
Five patients, 113 cores, within 3 h after injection
  AUC of the ROC analysis: 0.81
